Assay results as given in patent publication US12492188B2, “1H-benzo[D]imidazole derivatives as TLR9 inhibitors for the treatment of fibrosis” (BRISTOL-MYERS SQUIBB COMPANY, priority 2020, dated 2025).
Where two headings read alike, the source gives them in different places.

Assays:
Format in all cases: cell-based
human TLR9 = target: T1, human TLR9 (Homo sapiens, UniProt Q9NR96); experiment: TLR9 inhibition reporter assay (HEK-Blue cells, secreted embryonic alkaline phosphatase reporter)
T1 construct: host or cells: HEK-Blue cells (HEK293-derived reporter line)
T1 sequence (Q9NR96 26-1032): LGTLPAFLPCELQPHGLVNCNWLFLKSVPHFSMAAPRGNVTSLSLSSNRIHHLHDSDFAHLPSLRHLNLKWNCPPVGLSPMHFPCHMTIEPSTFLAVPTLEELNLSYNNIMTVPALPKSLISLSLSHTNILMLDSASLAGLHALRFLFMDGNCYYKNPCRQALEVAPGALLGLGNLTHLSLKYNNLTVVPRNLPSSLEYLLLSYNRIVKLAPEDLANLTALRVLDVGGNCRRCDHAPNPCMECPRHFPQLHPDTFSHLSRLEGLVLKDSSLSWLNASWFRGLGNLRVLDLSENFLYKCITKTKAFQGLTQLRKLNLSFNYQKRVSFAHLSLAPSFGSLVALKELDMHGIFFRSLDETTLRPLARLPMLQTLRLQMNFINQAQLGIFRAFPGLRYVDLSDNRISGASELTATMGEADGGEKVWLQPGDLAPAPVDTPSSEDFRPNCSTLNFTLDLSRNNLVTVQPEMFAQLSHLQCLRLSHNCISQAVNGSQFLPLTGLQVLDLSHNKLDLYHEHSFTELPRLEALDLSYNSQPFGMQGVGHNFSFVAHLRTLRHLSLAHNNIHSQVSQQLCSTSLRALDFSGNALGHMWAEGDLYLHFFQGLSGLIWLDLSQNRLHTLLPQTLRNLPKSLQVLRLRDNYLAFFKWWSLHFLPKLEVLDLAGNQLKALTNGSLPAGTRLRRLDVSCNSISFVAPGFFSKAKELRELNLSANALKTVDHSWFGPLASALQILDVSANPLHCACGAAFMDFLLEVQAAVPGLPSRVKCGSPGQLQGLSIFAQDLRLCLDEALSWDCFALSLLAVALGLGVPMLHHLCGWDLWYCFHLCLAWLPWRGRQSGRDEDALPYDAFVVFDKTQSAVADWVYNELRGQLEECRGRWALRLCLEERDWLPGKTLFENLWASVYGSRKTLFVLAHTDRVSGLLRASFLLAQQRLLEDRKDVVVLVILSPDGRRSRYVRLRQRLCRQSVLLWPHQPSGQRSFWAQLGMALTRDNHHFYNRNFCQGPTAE
Method in brief: (§1)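 Read-out is SEAP colour from HEK-Blue Detection medium after 22 h at 37 °C, converted to percent inhibition between agonist-plus-DMSO and reference-inhibitor wells. Receptor-overexpressing HEK-Blue cells received compound over 0.05 nM–50 μM for 30 min before agonist: gardiquimod 7.5 μM for TLR7, R848 15.9 μM for TLR8, ODN2006 5 nM for TLR9.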

human TLR7 = target: T2, human TLR7 (Homo sapiens, UniProt Q9NYK1); experiment: TLR7 inhibition reporter assay (HEK-Blue cells, secreted embryonic alkaline phosphatase reporter); conditions: HEK-Blue cells overexpressing human TLR7, stimulated with gardiquimod 7.5 μM; read-out: TLR 7 IC50
T2 construct: host or cells: HEK-Blue cells (HEK293-derived reporter line)
T2 sequence (Q9NYK1 27-1049): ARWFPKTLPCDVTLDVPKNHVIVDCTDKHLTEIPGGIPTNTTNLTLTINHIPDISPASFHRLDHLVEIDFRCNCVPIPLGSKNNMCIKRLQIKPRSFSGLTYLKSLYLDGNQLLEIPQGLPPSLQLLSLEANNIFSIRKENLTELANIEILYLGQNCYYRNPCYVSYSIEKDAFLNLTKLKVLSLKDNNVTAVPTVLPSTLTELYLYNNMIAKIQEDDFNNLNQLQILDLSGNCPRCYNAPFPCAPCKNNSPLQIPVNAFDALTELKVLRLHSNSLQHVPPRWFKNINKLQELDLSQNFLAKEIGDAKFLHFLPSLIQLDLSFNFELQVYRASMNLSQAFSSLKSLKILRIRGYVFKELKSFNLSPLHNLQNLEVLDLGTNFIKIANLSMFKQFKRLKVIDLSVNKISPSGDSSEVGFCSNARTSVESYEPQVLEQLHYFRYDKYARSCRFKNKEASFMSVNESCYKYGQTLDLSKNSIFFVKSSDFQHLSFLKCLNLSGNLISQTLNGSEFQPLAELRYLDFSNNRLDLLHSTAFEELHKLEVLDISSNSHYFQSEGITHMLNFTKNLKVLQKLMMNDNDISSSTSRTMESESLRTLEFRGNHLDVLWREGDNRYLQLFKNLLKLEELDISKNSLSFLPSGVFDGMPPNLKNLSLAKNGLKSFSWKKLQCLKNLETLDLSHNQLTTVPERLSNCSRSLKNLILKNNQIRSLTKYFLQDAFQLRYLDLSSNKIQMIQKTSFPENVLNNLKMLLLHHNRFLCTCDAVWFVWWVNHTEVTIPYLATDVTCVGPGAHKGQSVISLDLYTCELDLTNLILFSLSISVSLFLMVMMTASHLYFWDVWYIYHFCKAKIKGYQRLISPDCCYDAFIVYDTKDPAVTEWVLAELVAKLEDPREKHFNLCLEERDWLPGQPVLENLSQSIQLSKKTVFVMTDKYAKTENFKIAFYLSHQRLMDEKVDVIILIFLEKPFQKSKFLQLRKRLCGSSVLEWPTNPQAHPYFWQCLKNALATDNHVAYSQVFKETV
Method in brief: as §1

human TLR8 = target: T3, human TLR8 (Homo sapiens, UniProt Q9NR97); experiment: TLR8 inhibition reporter assay (HEK-Blue cells, secreted embryonic alkaline phosphatase reporter); conditions: HEK-Blue cells overexpressing human TLR8, stimulated with R848 15.9 μM; read-out: TLR 8 IC50
T3 construct: host or cells: HEK-Blue cells (HEK293-derived reporter line)
T3 sequence (Q9NR97 27-1041): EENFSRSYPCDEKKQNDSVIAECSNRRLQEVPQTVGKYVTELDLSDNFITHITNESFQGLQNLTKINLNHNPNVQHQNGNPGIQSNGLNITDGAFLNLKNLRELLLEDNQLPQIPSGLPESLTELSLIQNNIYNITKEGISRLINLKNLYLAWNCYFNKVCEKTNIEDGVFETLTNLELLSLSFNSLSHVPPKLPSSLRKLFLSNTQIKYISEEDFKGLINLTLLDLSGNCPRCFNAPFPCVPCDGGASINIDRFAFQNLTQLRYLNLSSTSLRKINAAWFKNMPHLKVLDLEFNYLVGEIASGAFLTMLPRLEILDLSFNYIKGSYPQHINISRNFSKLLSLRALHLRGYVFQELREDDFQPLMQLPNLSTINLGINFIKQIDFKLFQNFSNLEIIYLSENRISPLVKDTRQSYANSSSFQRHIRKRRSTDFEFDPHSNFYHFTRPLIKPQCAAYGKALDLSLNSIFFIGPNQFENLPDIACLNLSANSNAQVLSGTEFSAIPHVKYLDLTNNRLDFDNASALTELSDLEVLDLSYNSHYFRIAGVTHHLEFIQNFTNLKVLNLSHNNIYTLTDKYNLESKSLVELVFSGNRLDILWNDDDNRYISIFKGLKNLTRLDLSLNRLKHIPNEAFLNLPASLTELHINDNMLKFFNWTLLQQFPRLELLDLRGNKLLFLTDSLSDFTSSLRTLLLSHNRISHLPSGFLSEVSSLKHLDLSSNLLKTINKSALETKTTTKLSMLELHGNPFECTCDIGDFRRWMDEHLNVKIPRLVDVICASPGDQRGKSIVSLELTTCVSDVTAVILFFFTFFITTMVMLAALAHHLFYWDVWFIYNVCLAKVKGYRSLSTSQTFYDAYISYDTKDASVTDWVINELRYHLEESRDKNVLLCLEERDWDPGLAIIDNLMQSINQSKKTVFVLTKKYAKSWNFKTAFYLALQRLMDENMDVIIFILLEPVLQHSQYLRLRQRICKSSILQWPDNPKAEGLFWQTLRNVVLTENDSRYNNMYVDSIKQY
Method in brief: as §1

[1] = HEK-Blue cells overexpressing human TLR9, stimulated with ODN2006 5 nM, 22 hour incubation, reporter readout
[2] = HEK-Blue cells overexpressing human TLR9, stimulated with ODN2006 5 nM, read-out: TLR 9 IC50
[3] = HEK-Blue human TLR9 reporter cells

Structure (SMILES) | IC50 (human TLR9; [1]) [nM] | IC50 (human TLR9; [2]) [nM] | IC50 (human TLR7) [nM] | IC50 (human TLR8) [nM] | IC50 (human TLR9) [nM] | IC50 (human TLR9; [3]) [nM]
Cc1cc(-c2ccc(C3CCN(C4CCN(C5CC5)CC4)CC3)cc2)cc2c1nc(-c1ccc(S(C)(=O)=O)cc1)n2C [Example 401, 6-(4-(1′-cyclopropyl-[1,4′-bipiperidin]-4-yl)phenyl)-1,4-dimethyl-2-(4-(methylsulfonyl)phenyl)-1H-benzo[d]imidazole] | 100 | 104 | 2700 | 1200 |  | 
Cc1cc(C2CCN(C3CC4CCC(C3)N4C3CCOCC3)CC2)cc2c1nc(-c1ccc(S(C)(=O)=O)cc1)n2C (single isomer, unassigned) [Example 160, 1,4-dimethyl-2-(4-(methylsulfonyl)phenyl)-6-(1-(8-(tetrahydro-2H-pyran-4-yl)-8-azabicyclo[3.2.1]octan-3-yl)piperidin-4-yl)-1H-benzo[d]imidazole] |  | 52 | 23500 | > 25000 | 52 | 
Cn1c(-c2ccc(S(C)(=O)=O)cc2)nc2cc(C3CCN(C4CCN(C5CCOCC5)CC4)CC3)c(F)cc21 [Example 245, 6-fluoro-1-methyl-2-(4-(methylsulfonyl)phenyl)-5-(1′-(tetrahydro-2H-pyran-4-yl)-[1,4′-bipiperidin]-4-yl)-1H-benzo[d]imidazole] |  | 1060 | > 50000 | > 50000 | 1100 | 
Cn1c(-c2ccc(S(C)(=O)=O)cc2)nc2ccc(C3CCN(C4CCN(C5CCOCC5)CC4)CC3)c(F)c21 [Example 264, 7-fluoro-1-methyl-2-(4-(methylsulfonyl)phenyl)-6-(1′-(tetrahydro-2H-pyran-4-yl)-[1,4′-bipiperidin]-4-yl)-1H-benzo[d]imidazole] |  | 281 | 2300 | 20700 | 280 | 
COc1ccc(-c2nc3c(C)cc(C4CCN(C5CCN(CC(C)C)CC5)CC4)cc3[nH]2)cc1F [Example 56, 2-(3-fluoro-4-methoxyphenyl)-6-(1′-isobutyl-[1,4′-bipiperidin]-4-yl)-4-methyl-1H-benzo[d]imidazole] | 50 | 50 | 3200 | > 50000 |  | 
CS(=O)(=O)c1ccc(-c2nc3c(F)cc(C4CCN(C5CC6CCC(C5)N6CC5CC5)CC4)cc3n2C2CC2)cc1 (single isomer, unassigned) [Example 325, 1-cyclopropyl-6-(1-(8-(cyclopropylmethyl)-8-azabicyclo[3.2.1]octan-3-yl)piperidin-4-yl)-4-fluoro-2-(4-(methylsulfonyl)phenyl)-1H-benzo[d]imidazole] |  | 15 | 8200 | > 50000 |  | 15
COCCN1CCC(N2CCC(c3cc(F)c4c(c3)nc(-c3ccc(S(C)(=O)=O)cc3)n4C)CC2)CC1 [Example 208, 7-fluoro-5-(1′-(2-methoxyethyl)-[1,4′-bipiperidin]-4-yl)-1-methyl-2-(4-(methylsulfonyl)phenyl)-1H-benzo[d]imidazole] |  | 937 | > 50000 | > 50000 | 940 | 
Cn1c(-c2ccc(S(C)(=O)=O)cc2)nc2cc(C3CCN(C4CC5CCC(C4)N5C4COC4)CC3)c(F)cc21 (single isomer, unassigned) [Example 253, 6-fluoro-1-methyl-2-(4-(methylsulfonyl)phenyl)-5-(1-(8-(oxetan-3-yl)-8-azabicyclo[3.2.1]octan-3-yl)piperidin-4-yl)-1H-benzo[d]imidazole] |  | 278 | > 50000 | > 50000 | 280 | 
Cc1cc(-c2ccc(CN3CCC(N4CCC4)CC3)cc2)cc2c1nc(-c1ccc(S(C)(=O)=O)cc1)n2C [Example 402, 6-(4-((4-(azetidin-1-yl)piperidin-1-yl)methyl)phenyl)-1,4-dimethyl-2-(4-(methylsulfonyl)phenyl)-1H-benzo[d]imidazole] | 3.9 | 3.9 | 600 | 5800 |  | 
Cc1cc(C2CCN(C3CCN(C4CC4)CC3)CC2)cc2c1nc(-c1ccc(S(C)(=O)=O)c(F)c1)n2C [Example 339, 6-(1′-cyclopropyl-[1,4′-bipiperidin]-4-yl)-2-(3-fluoro-4-(methylsulfonyl)phenyl)-1,4-dimethyl-1H-benzo[d]imidazole] |  | 343 | 12700 | > 25000 |  | 340
Cn1c(-c2ccc(S(C)(=O)=O)cc2)nc2c(F)cc(C3CCN(C4CC5CCC(C4)N5C4CCC4)CC3)cc21 (single isomer, unassigned) [Example 293, 6-(1-(8-cyclobutyl-8-azabicyclo[3.2.1]octan-3-yl)piperidin-4-yl)-4-fluoro-1-methyl-2-(4-(methylsulfonyl)phenyl)-1H-benzo[d]imidazole] |  | 11 | 8200 | 44200 |  | 11
